# In patent US6969730B2, “Amines as histamine-3 receptor ligands and their therapeutic applications” (Abbott Laboratories, priority 2001, dated 2005):
# Target: T1, histamine-3 receptors (H3 receptor) (Rattus norvegicus, UniProt Q9QYN8)
# T1 construct: from tissue; host or cells: male Sprague-Dawley rat brain cortex membranes
# Assay: (3H)-N-α-methylhistamine binding to rat cortical membranes (histamine-3 receptor ligands)
# Details: male Sprague-Dawley rat brain cortical membranes; (3H)-N-α-methylhistamine ~0.6 nM; 30 minutes at 25° C.; Cheng-Prusoff
# Procedure: Briefly, male Sprague-Dawley rat brain cortices were homogenized (1 g tissue/10 mL buffer) in 50 mM Tris-HCl/5 mM EDTA containing protease inhibitor cocktail (Calbiochem) using a polytron set at 20,500 rpm. Homogenates were centrifuged for 20 minutes at 40,000×g. The supernatant was decanted, and pellets were weighed. The pellet was resuspended by polytron homogenization in 40 mL 50 mM Tris-HCl/5 mM EDTA with protease inhibitors and centrifuged for 20 minutes at 40,000×g. […] Rat cortical membranes (12 mg wet weight/tube) were incubated with (^3H)-N-α-methylhistamine (˜0.6 nM) with or without H3 receptor antagonists in a total incubation volume of 0.5 mL of 50 mM Tris-HCl/5 mM EDTA (pH 7.7). Test compounds were dissolved in DSMO to provide a 20 mM solution, serially diluted and then added to the incubation mixture prior to initiating the incubation assay by addition of the membranes. Thioperamide (3 μM) was used to determine nonspecific binding. Binding incubations were conducted for 30 minutes at 25° C. and terminated by addition of 2 mL of ice cold 50 mM Tris-HCl (pH 7.7) and filtration through 0.3% polyethylenimine-soaked Unifilter plates (Packard). These filters were washed 4 additional times with 2 mL of ice-cold 50 mM Tris-HCl and dried for 1 hour. Radioactivity was determined using liquid scintillation counting techniques. Results were analyzed by Hill transformation and Ki values were determined using the Cheng-Prusoff equation.
# T1 sequence (Q9QYN8 whole entry): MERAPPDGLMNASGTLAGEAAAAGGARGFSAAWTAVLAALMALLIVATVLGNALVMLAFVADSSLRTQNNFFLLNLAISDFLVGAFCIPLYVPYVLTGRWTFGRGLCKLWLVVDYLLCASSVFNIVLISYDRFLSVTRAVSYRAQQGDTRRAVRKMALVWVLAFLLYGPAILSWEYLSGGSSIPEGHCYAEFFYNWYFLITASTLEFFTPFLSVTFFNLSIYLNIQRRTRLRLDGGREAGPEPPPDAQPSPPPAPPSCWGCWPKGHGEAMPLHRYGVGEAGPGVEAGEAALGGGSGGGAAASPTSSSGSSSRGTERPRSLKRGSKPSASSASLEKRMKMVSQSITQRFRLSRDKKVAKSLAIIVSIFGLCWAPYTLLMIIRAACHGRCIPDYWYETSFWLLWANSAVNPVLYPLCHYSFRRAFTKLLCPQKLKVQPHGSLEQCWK
row,SMILES,Ki [nM]
1,"C[C@@H]1CCCN1CCc1cc2cc(-c3ccc(C#N)c(F)c3)ccc2o1 [Example 111, 2-fluoro-4-(2-{2-[(2R)-2-methyl-1-pyrrolidinyl]ethyl}-1-benzofuran-5-yl)benzonitrile]",9
2,"C[C@@H]1CCCN1CCc1cc2cc(-c3cccc(C#N)c3)ccc2o1 [Example 112, 3-(2-{2-[(2R)-2-methyl-1-pyrrolidinyl]ethyl}-1-benzofuran-5-yl)benzonitrile]",3
3,"C[C@@H]1CCCN1CCc1cc2cc(-c3ccc(F)cc3)ccc2o1 [Example 113, (2R)-1-{2-[5-(4-fluorophenyl)-1-benzofuran-2-yl]ethyl}-2-methylpyrrolidine]",77
4,"C[C@@H]1CCCN1CCc1cc2cc(-c3ccc(Cl)c(Cl)c3)ccc2o1 [Example 114, (2R)-1-{2-[5-(3,4-dichlorophenyl)-1-benzofuran-2-yl]ethyl}-2-methylpyrrolidine]",97
5,"Cc1ccccc1-c1ccc2oc(CCN3CCC[C@H]3C)cc2c1 [Example 115, (2R)-2-methyl-1-{2-[5-(2-methylphenyl)-1-benzofuran-2-yl]ethyl}pyrrolidine]",33
6,"Cc1cccc(-c2ccc3oc(CCN4CCC[C@H]4C)cc3c2)c1 [Example 116, (2R)-2-methyl-1-{2-[5-(3-methylphenyl)-1-benzofuran-2-yl]ethyl}pyrrolidine]",30
7,"Cc1ccc(-c2ccc3oc(CCN4CCC[C@H]4C)cc3c2)cc1 [Example 117, (2R)-2-methyl-1-{2-[5-(4-methylphenyl)-1-benzofuran-2-yl]ethyl}pyrrolidine]",110
8,"COC(=O)c1ccc(-c2ccc3oc(CCN4CCC[C@H]4C)cc3c2)cc1 [Example 118, methyl 4-(2-{2-[(2R)-2-methyl-1-pyrrolidinyl]ethyl}-1-benzofuran-5-yl)benzoate]",42
9,"COc1ccccc1-c1ccc2oc(CCN3CCC[C@H]3C)cc2c1 [Example 119, (2R)-1-{2-[5-(2-methoxyphenyl)-1-benzofuran-2-yl]ethyl}-2-methylpyrrolidine]",66
10,"COc1cccc(-c2ccc3oc(CCN4CCC[C@H]4C)cc3c2)c1 [Example 120, (2R)-1-{2-[5-(3-methoxyphenyl)-1-benzofuran-2-yl]ethyl}-2-methylpyrrolidine]",23
11,"C[C@@H]1CCCN1CCc1cc2cc(-c3cccc(F)c3)ccc2o1 [Example 122, (2R)-1-{2-[5-(3-fluorophenyl)-1-benzofuran-2-yl]ethyl}-2-methylpyrrolidine]",17
12,"C[C@@H]1CCCN1CCc1cc2cc(-c3ccccc3Cl)ccc2o1 [Example 123, (2R)-1-{2-[5-(2-chlorophenyl)-1-benzofuran-2-yl]ethyl}-2-methylpyrrolidine]",16
13,"C[C@@H]1CCCN1CCc1cc2cc(-c3cccc(Cl)c3)ccc2o1 [Example 124, (2R)-1-{2-[5-(3-chlorophenyl)-1-benzofuran-2-yl]ethyl}-2-methylpyrrolidine]",34
14,"CC1CCCN1CCc1cc2cc(-c3ccc(Cl)cc3)ccc2o1 (centres unmarked) [Example 125, 1-{2-[5-(4-chlorophenyl)-benzofuran-2-yl]-ethyl}-2-methylpyrrolidine]",63
15,"C[C@@H]1CCCN1CCc1cc2cc(-c3cccc(C(F)(F)F)c3)ccc2o1 [Example 126, (2R)-2-methyl-1-(2-{5-[3-(trifluoromethyl)phenyl]-1-benzofuran-2-yl}ethyl)pyrrolidine]",81
16,"C[C@@H]1CCCN1CCc1cc2cc(-c3ccc(C(F)(F)F)cc3)ccc2o1 [Example 127, (2R)-2-methyl-1-(2-{5-[4-(trifluoromethyl)phenyl]-1-benzofuran-2-yl}ethyl)pyrrolidine]",120
17,"C[C@@H]1CCCN1CCc1cc2cc(-c3cccc(OC(F)(F)F)c3)ccc2o1 [Example 128, (2R)-2-methyl-1-(2-{5-[3-(trifluoromethoxy)phenyl]-1-benzofuran-2-yl}ethyl)pyrrolidine]",110
18,"C[C@@H]1CCCN1CCc1cc2cc(-c3ccc(OC(F)(F)F)cc3)ccc2o1 [Example 129, (2R)-2-methyl-1-(2-{5-[4-(trifluoromethoxy)phenyl]-1-benzofuran-2-yl}ethyl)pyrrolidine]",150
19,"Cc1ccc(-c2ccc3oc(CCN4CCC[C@H]4C)cc3c2)cc1C [Example 130, (2R)-1-{2-[5-(3,4-dimethylphenyl)-1-benzofuran-2-yl]ethyl}-2-methylpyrrolidine]",60

row,SMILES,Ki [nM]
1,"C[C@@H]1CCCN1CCc1cc2cc(-c3cc(Cl)cc(Cl)c3)ccc2o1 [Example 131, (2R)-1-{2-[5-(3,5-dichlorophenyl)-1-benzofuran-2-yl]ethyl}-2-methylpyrrolidine]",22
2,"Cc1cc(C)cc(-c2ccc3oc(CCN4CCC[C@H]4C)cc3c2)c1 [Example 132, (2R)-1-{2-[5-(3,5-dimethylphenyl)-1-benzofuran-2-yl]ethyl}-2-methylpyrrolidine]",19
3,"C[C@@H]1CCCN1CCc1cc2cc(-c3ccc(CO)cc3)ccc2o1 [Example 133, [4-(2-{2-[(2R)-2-methyl-1-pyrrolidinyl]ethyl}-1-benzofuran-5-yl)phenyl]methanol]",6.4
4,"C[C@@H]1CCCN1CCc1cc2cc(-c3cccnc3)ccc2o1 [Example 134, 3-(2-{2-[(2R)-2-methyl-1-pyrrolidinyl]ethyl}-1-benzofuran-5-yl)pyridine]",3.2
5,"C[C@@H]1CCCN1CCc1cc2cc(C=Cc3ccc(F)cc3)ccc2o1 [Example 135, (2R)-1-(2-{5-[2-(4-fluorophenyl)vinyl]-1-benzofuran-2-yl}ethyl)-2-methylpyrrolidine]",31
6,"CC(=O)c1cccc(-c2ccc3oc(CCN4CCC[C@H]4C)cc3c2)c1 [Example 136, 1-[3-(2-{2-[(2R)-2-methyl-1-pyrrolidinyl]ethyl}-1-benzofuran-5-yl)phenyl]ethanone]",0.4
7,"CC(O)c1cccc(-c2ccc3oc(CCN4CCC[C@H]4C)cc3c2)c1 (stereo partly drawn) [Example 137, 1-[3-(2-{2-[(2R)-2-methyl-1-pyrrolidinyl]ethyl}-1-benzofuran-5-yl)phenyl]ethanol]",2.8
8,"C[C@@H]1CCCN1CCc1cc2cc(-c3cccc(C(C)(C)O)c3)ccc2o1 [Example 138, 2-[3-(2-{2-[(2R)-2-methyl-1-pyrrolidinyl]ethyl}-1-benzofuran-5-yl)phenyl]-2-propanol]",1.2
9,"CC(=NO)c1cccc(-c2ccc3oc(CCN4CCC[C@H]4C)cc3c2)c1 [Example 139, 1-[3-(2-{2-[(2R)-2-methyl-1-pyrrolidinyl]ethyl}-1-benzofuran-5-yl)phenyl]ethanone oxime]",3.1
10,"CON=C(C)c1cccc(-c2ccc3oc(CCN4CCC[C@H]4C)cc3c2)c1 [Example 140, 1-[3-(2-{2-[(2R)-2-methyl-1-pyrrolidinyl]ethyl}-1-benzofuran-5-yl)phenyl]ethanone O-methyloxime]",21
11,"CCON=C(C)c1cccc(-c2ccc3oc(CCN4CCC[C@H]4C)cc3c2)c1 [Example 141, 1-[3-(2-{2-[(2R)-2-methyl-1-pyrrolidinyl]ethyl}-1-benzofuran-5-yl)phenyl]ethanone O-ethyloxime]",44
12,"CC(=NOC(C)(C)C)c1cccc(-c2ccc3oc(CCN4CCC[C@H]4C)cc3c2)c1 [Example 142, 1-[3-(2-{2-[(2R)-2-methyl-1-pyrrolidinyl]ethyl}-1-benzofuran-5-yl)phenyl]ethanone O-(tert-butyl)oxime]",29
13,"CC(C)CC(=O)c1cccc(-c2ccc3oc(CCN4CCC[C@H]4C)cc3c2)c1 [Example 148, 3-methyl-1-[3-(2-{2-[(2R)-2-methyl-1-pyrrolidinyl]ethyl}-1-benzofuran-5-yl)phenyl]-1-butanone]",19
14,"C[C@@H]1CCCN1CCc1cc2cc(-c3cccc(C=O)c3)ccc2o1 [Example 149, 3-(2-{2-[(2R)-2-methyl-1-pyrrolidinyl]ethyl}-1-benzofuran-5-yl)benzaldehyde]",3.3
15,"C[C@@H]1CCCN1CCc1cc2cc(-c3cccc(C(=O)c4cccs4)c3)ccc2o1 [Example 150, [3-(2-{2-[(2R)-2-methyl-1-pyrrolidinyl]ethyl}-1-benzofuran-5-yl)phenyl](2-thienyl)methanone]",3.6
16,"C[C@@H]1CCCN1CCc1cc2cc(-c3cccc(C(=O)c4cccc(F)c4)c3)ccc2o1 [Example 151, (3-fluorophenyl)[3-(2-{2-[(2R)-2-methyl-1-pyrrolidinyl]ethyl}-1-benzofuran-5-yl)phenyl]methanone]",53
17,"C[C@@H]1CCCN1CCc1cc2cc(-c3cccc(CO)c3)ccc2o1 [Example 152, [3-(2-{2-[(2R)-2-methyl-1-pyrrolidinyl]ethyl}-1-benzofuran-5-yl)phenyl]methanol]",2.6
18,"C[C@@H]1CCCN1CCc1cc2cc(Cc3ccccc3)ccc2o1 [Example 153, (2R)-1-[2-(5-benzyl-1-benzofuran-2-yl)ethyl]-2-methylpyrrolidine]",32
19,"C[C@@H]1CCCN1CCc1cc2cc(-n3ccnc3)ccc2o1 [Example 154, 1-(2-{2-[(2R)-2-methyl-1-pyrrolidinyl]ethyl}-1-benzofuran-5-yl)-1H-imidazole]",2
